Some test systems named below: SR; SN12C; SF-539; UACC-257; KM12; U-251; BT-549; SNB-19; SF-295; OVCAR-3; MDA-MB-435; TK-10; T47D; MDA-N; LOX IMVI; DU-145; EKVX; NCI-H23; NCI-H460.
Common to all, as to experiment: growth of human tumour cells (NCI), 48 h

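Growth conditions: 96-well plates. Treatment: test compound, 48 hours, 5 concentrations. Analysis: linear interpolation between bracketing concentrations; unreached endpoints set to highest concentration. At the GI50, growth is halved.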 Active and inactive are the calls of the source. Rule as the data show it: active = GI50 up to about 1.1 µM and inactive = higher.

For the compound `Cc1ccc(/C=C2\N=C(N3CCOCC3)NC2=O)cc1`, the GI50 in the experiment with SR, with SN12C, in the experiment with SF-539, with UACC-257, in the experiment with KM12 and in the experiment with U-251 was > 100 µM (inactive) each time. Further, the GI50 in the experiment with BT-549, in the experiment with SNB-19, in the experiment with SF-295, in the experiment on OVCAR-3, with MDA-MB-435 and in the experiment with TK-10 was > 100 µM (inactive) each time. Besides, the GI50 with T47D, with MDA-N, in the experiment on LOX IMVI, in the experiment on DU-145, in the experiment with EKVX and in the experiment with NCI-H23 was > 100 µM (inactive) throughout.

Turning to `O=C1CSC2(CC(/C=C/c3cccs3)=NN2c2cccc(S(=O)(=O)O)c2)N1c1nc2ccccc2s1` (stereo unspecified), the GI50 with SR is 30.2 µM (inactive); with SN12C it was > 100 µM (inactive); in the experiment with SF-539 it was > 100 µM (inactive); in the experiment with UACC-257, > 100 µM (inactive); with KM12 it was > 100 µM (inactive); in the experiment on U-251 it was 65.6 µM (inactive). Besides, the GI50 was 11.9 µM (inactive) in the experiment on BT-549; > 100 µM (inactive) with SNB-19; 72.4 µM (inactive) in the experiment with MDA-MB-435; 62.1 µM (inactive) in the experiment with TK-10; 21 µM (inactive) in the experiment on T47D; > 100 µM (inactive) in the experiment on MDA-N. Moreover, the GI50 in the experiment on LOX IMVI was 48.4 µM (inactive); in the experiment on DU-145, > 100 µM (inactive); in the experiment on NCI-H460, 67.5 µM (inactive); in the experiment with EKVX, 52.6 µM (inactive); in the experiment with NCI-H23, 42.7 µM (inactive).

`COc1cc(O)c2c(=O)c3cccc(C)c3[nH]c2c1`: the GI50 in the experiment on SN12C was > 10 µM (inactive); in the experiment on SF-539 it was > 10 µM (inactive); in the experiment on UACC-257, > 10 µM (inactive); with KM12, 5.93 µM (inactive); in the experiment on U-251 it was > 10 µM (inactive); in the experiment with BT-549, > 10 µM (inactive). Moreover, the GI50 with SNB-19 is > 10 µM (inactive); with SF-295, > 10 µM (inactive); with OVCAR-3, 9.31 µM (inactive); in the experiment with MDA-MB-435, > 10 µM (inactive); in the experiment with TK-10, > 10 µM (inactive); with T47D it was > 10 µM (inactive). For the same compound, the GI50 is > 10 µM (inactive) with MDA-N; 8.75 µM (inactive) in the experiment on LOX IMVI; > 10 µM (inactive) in the experiment with DU-145; > 10 µM (inactive) with NCI-H460; > 10 µM (inactive) in the experiment with EKVX; > 10 µM (inactive) in the experiment on NCI-H23.

Regarding `CC(C)(C)OC(=O)NCC(=O)NC1CC=CCC1NC(=O)CNC(=O)OC(C)(C)C` (stereo unspecified), the GI50 in the experiment on SR, in the experiment on SN12C, with SF-539, with UACC-257, in the experiment with KM12 and in the experiment on U-251 was > 100 µM (inactive) in each case. The GI50 in the experiment with BT-549, in the experiment on SNB-19, in the experiment on SF-295, with OVCAR-3, in the experiment with MDA-MB-435 and with TK-10 was > 100 µM (inactive) each time. Besides, the GI50 with T47D, with MDA-N, in the experiment with LOX IMVI, in the experiment with DU-145, in the experiment with NCI-H460 and in the experiment with NCI-H23 was > 100 µM (inactive) each time.

For the compound `O=[N+]([O-])c1cc2c([N+](=O)[O-])cccc2o1`, the GI50 was 12.1 µM (inactive) with SN12C; 2.49 µM (inactive) in the experiment on SF-539; 6.93 µM (inactive) in the experiment with UACC-257; 15.2 µM (inactive) in the experiment on KM12; 18.4 µM (inactive) in the experiment on U-251; 15.7 µM (inactive) in the experiment on BT-549. Besides, the GI50 in the experiment with SNB-19 is 19.2 µM (inactive); in the experiment with SF-295, 22.9 µM (inactive); in the experiment with OVCAR-3, 5.01 µM (inactive); with MDA-MB-435, 18 µM (inactive); in the experiment on TK-10 it was 9.25 µM (inactive); with T47D, 6.7 µM (inactive). Also, the GI50 was 7.93 µM (inactive) in the experiment on MDA-N; 3.66 µM (inactive) in the experiment with LOX IMVI; 14.7 µM (inactive) in the experiment with DU-145; > 100 µM (inactive) with NCI-H460; 2.56 µM (inactive) in the experiment on EKVX; 15.8 µM (inactive) in the experiment with NCI-H23.

On to `CCN(C(=O)/C=C/c1ccco1)c1ccccc1`, for which the GI50 in the experiment on SR was 46.2 µM (inactive); in the experiment on SN12C it was > 100 µM (inactive); in the experiment on UACC-257, > 100 µM (inactive); in the experiment on KM12 it was > 100 µM (inactive); in the experiment with U-251, > 100 µM (inactive); in the experiment with BT-549 it was > 100 µM (inactive). The GI50 in the experiment with SNB-19, in the experiment with SF-295, in the experiment on OVCAR-3, with MDA-MB-435, with TK-10 and with T47D was > 100 µM (inactive) in each case. The GI50 in the experiment with MDA-N, in the experiment with LOX IMVI, with DU-145, with NCI-H460, with EKVX and in the experiment on NCI-H23 was > 100 µM (inactive) throughout.

As to `CC(=O)CSc1c(-c2ccccc2)c(=O)n(-c2ccccc2)c(=S)n1-c1ccccc1`, the GI50 in the experiment with SR, in the experiment with SN12C, with UACC-257, in the experiment with KM12, in the experiment on U-251 and with BT-549 was > 100 µM (inactive) in each case. The GI50 in the experiment with SNB-19, with SF-295, in the experiment with OVCAR-3, in the experiment on MDA-MB-435, with TK-10 and in the experiment with T47D was > 100 µM (inactive) each time. Besides, the GI50 with MDA-N, in the experiment with LOX IMVI, with DU-145, in the experiment with NCI-H460, in the experiment with EKVX and in the experiment with NCI-H23 was > 100 µM (inactive) in each case.

Turning to `CCOC(=O)C1=CC(C)(C(=O)OCC)Nc2c(nc(SC)n(C)c2=O)N1` (stereo unspecified), the GI50 in the experiment with SN12C, in the experiment with SF-539, in the experiment on UACC-257, in the experiment with KM12, in the experiment on U-251 and in the experiment on BT-549 was > 10 µM (inactive) each time. Also, the GI50 in the experiment on SNB-19, in the experiment with SF-295, in the experiment with OVCAR-3, in the experiment with MDA-MB-435, in the experiment on TK-10 and with T47D was > 10 µM (inactive) each time. For the same compound, the GI50 in the experiment with MDA-N, with LOX IMVI, in the experiment on DU-145, with NCI-H460, with EKVX and in the experiment on NCI-H23 was > 10 µM (inactive) in each case.

With `COc1ccc(Cn2nc(OCc3ccccn3)c3cc([N+](=O)[O-])ccc32)cc1`, the GI50 in the experiment on SR is > 100 µM (inactive); in the experiment with SN12C it was > 100 µM (inactive); with SF-539, 33.3 µM (inactive); in the experiment with UACC-257, > 100 µM (inactive); with KM12, > 100 µM (inactive); in the experiment with BT-549, > 100 µM (inactive). The GI50 is 85.9 µM (inactive) with SNB-19; 50.9 µM (inactive) in the experiment with SF-295; > 100 µM (inactive) with OVCAR-3; > 100 µM (inactive) with MDA-MB-435; > 100 µM (inactive) with TK-10; > 100 µM (inactive) with T47D. Besides, the GI50 with MDA-N, in the experiment with LOX IMVI, with DU-145, with NCI-H460 and in the experiment on NCI-H23 was > 100 µM (inactive) in each case.

With `CCOC(=O)[C@@]1(C(C)=O)CC(C)=C(C)C[S@@+]1[O-]`, the GI50 in the experiment on SR, in the experiment on SN12C, in the experiment with UACC-257, with KM12, with U-251 and in the experiment with BT-549 was > 100 µM (inactive) each time. The GI50 in the experiment with SNB-19, in the experiment on SF-295, with OVCAR-3, in the experiment with MDA-MB-435, in the experiment with TK-10 and with T47D was > 100 µM (inactive) throughout. The GI50 in the experiment on MDA-N, with LOX IMVI, in the experiment on DU-145, in the experiment on NCI-H460, with EKVX and in the experiment with NCI-H23 was > 100 µM (inactive) each time.

With `c1ccc(/N=C2\c3ccsc3/C(=N/c3ccccc3)c3ccsc32)cc1`, the GI50 with SN12C was 1.58 µM (inactive); with SF-539, 1.99 µM (inactive); in the experiment with UACC-257 it was 1.29 µM (inactive); in the experiment on KM12 it was 2.36 µM (inactive); in the experiment on U-251, 1.91 µM (inactive); in the experiment on BT-549 it was 2.07 µM (inactive). For the same compound, the GI50 with SNB-19 is 1.98 µM (inactive); with SF-295, 1.7 µM (inactive); in the experiment with OVCAR-3, 1.92 µM (inactive); in the experiment with MDA-MB-435 it was 0.213 µM (active); in the experiment with TK-10, 5.6 µM (inactive); with T47D it was 1.52 µM (inactive). The GI50 was 0.244 µM (active) with MDA-N; 0.458 µM (active) in the experiment with LOX IMVI; 1.73 µM (inactive) in the experiment with DU-145; 2.01 µM (inactive) in the experiment on NCI-H460; 2.09 µM (inactive) in the experiment with EKVX; 0.914 µM (active) in the experiment with NCI-H23.

(Values after ChEMBL document CHEMBL1201862, “PubChem BioAssay data set” (2004).)
